Experimental data taken from PubChem BioAssay (NCI).
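Results reflect a 48-hour exposure of cells in 96-well plates to compound at five concentrations. At the GI50, growth is halved. The concentration for full growth arrest is given as TGI.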

Assays:
Assay in all cases: DTP human tumour cell line panel, 48 h
SF-268 CNS = tested on: SF-268 CNS
SK-MEL-5 melanoma = tested on: SK-MEL-5 melanoma
NCI-H522 lung = tested on: NCI-H522 lung
HOP-62 NSCLC = tested on: HOP-62 NSCLC
CAKI-1 renal = tested on: CAKI-1 renal
ACHN renal = tested on: ACHN renal
SW-620 colon = tested on: SW-620 colon
U251 CNS = tested on: U251 CNS
NCI-H23 lung = tested on: NCI-H23 lung
EKVX NSCLC = tested on: EKVX NSCLC
OVCAR-3 ovarian = tested on: OVCAR-3 ovarian
SN12C renal = tested on: SN12C renal
K-562 leukemia = tested on: K-562 leukemia
MOLT-4 leukemia = tested on: MOLT-4 leukemia
A498 renal = tested on: A498 renal
OVCAR-5 ovarian = tested on: OVCAR-5 ovarian
A549 NSCLC = tested on: A549 NSCLC
NCI-H226 lung = tested on: NCI-H226 lung
RPMI-8226 leukemia = tested on: RPMI-8226 leukemia
SF-539 CNS = tested on: SF-539 CNS
IGROV1 ovarian = tested on: IGROV1 ovarian
UO-31 renal = tested on: UO-31 renal
CCRF-CEM leukemia = tested on: CCRF-CEM leukemia
SK-MEL-2 melanoma = tested on: SK-MEL-2 melanoma
HOP-92 NSCLC = tested on: HOP-92 NSCLC
UACC-257 melanoma = tested on: UACC-257 melanoma
MALME-3M melanoma = tested on: MALME-3M melanoma
HT29 colon = tested on: HT29 colon
KM12 colon = tested on: KM12 colon
SF-295 CNS = tested on: SF-295 CNS
RXF 393 renal = tested on: RXF 393 renal
NCI-H460 lung = tested on: NCI-H460 lung
HCC-2998 colon = tested on: HCC-2998 colon
PC-3 prostate = tested on: PC-3 prostate
DU-145 prostate = tested on: DU-145 prostate
HCT-116 colon = tested on: HCT-116 colon
MCF7 breast = tested on: MCF7 breast
COLO 205 colon = tested on: COLO 205 colon
MDA-MB-468 breast = tested on: MDA-MB-468 breast
MDA-MB-435 = tested on: MDA-MB-435
HCT-15 colon = tested on: HCT-15 colon
OVCAR-8 ovarian = tested on: OVCAR-8 ovarian
BT-549 breast = tested on: BT-549 breast
HL-60(TB) leukemia = tested on: HL-60(TB) leukemia
LOX IMVI melanoma = tested on: LOX IMVI melanoma
MDA-MB-231 breast = tested on: MDA-MB-231 breast
M14 melanoma = tested on: M14 melanoma
SK-MEL-28 melanoma = tested on: SK-MEL-28 melanoma
SNB-75 CNS = tested on: SNB-75 CNS
OVCAR-4 ovarian = tested on: OVCAR-4 ovarian
786-0 renal = tested on: 786-0 renal
NCI/ADR-RES ovarian = tested on: NCI/ADR-RES ovarian
HS 578T breast = tested on: HS 578T breast
T-47D breast = tested on: T-47D breast
SK-OV-3 ovarian = tested on: SK-OV-3 ovarian
SNB-19 CNS = tested on: SNB-19 CNS
TK-10 renal = tested on: TK-10 renal
UACC-62 melanoma = tested on: UACC-62 melanoma

COC(=O)C[C@](O)(CCCC(C)C)C(=O)O[C@H]1C(OC)=C[C@@]23CCCN2CCc2cc4c(cc2[C@@H]13)OCO4
GI50 (SF-268 CNS): 5.01 µM | TGI (SF-268 CNS): 22.8 µM | GI50 (SK-MEL-5 melanoma): 0.823 µM | TGI (SK-MEL-5 melanoma): 2.45 µM | GI50 (NCI-H522 lung): 1.03 µM | TGI (NCI-H522 lung): 2.97 µM | GI50 (HOP-62 NSCLC): 2.8 µM | TGI (HOP-62 NSCLC): 30 µM | GI50 (CAKI-1 renal): 2.41 µM | TGI (CAKI-1 renal): 35.2 µM | GI50 (ACHN renal): 1.21 µM | TGI (ACHN renal): 6.61 µM | GI50 (SW-620 colon): 1.49 µM | TGI (SW-620 colon): 32.5 µM | GI50 (U251 CNS): 1.21 µM | TGI (U251 CNS): 11.8 µM | GI50 (NCI-H23 lung): 1.35 µM | TGI (NCI-H23 lung): 6.66 µM | GI50 (EKVX NSCLC): 2.29 µM | TGI (EKVX NSCLC): 18.1 µM | GI50 (OVCAR-3 ovarian): 1.13 µM | TGI (OVCAR-3 ovarian): 8.52 µM | GI50 (SN12C renal): 3.62 µM | TGI (SN12C renal): 23.2 µM | GI50 (K-562 leukemia): 1.14 µM | TGI (K-562 leukemia): 11.1 µM | GI50 (MOLT-4 leukemia): 0.699 µM | TGI (MOLT-4 leukemia): 3.4 µM | GI50 (A498 renal): 0.776 µM | TGI (A498 renal): 5.78 µM | GI50 (OVCAR-5 ovarian): 2.56 µM | TGI (OVCAR-5 ovarian): 15.4 µM | GI50 (A549 NSCLC): 1.39 µM | TGI (A549 NSCLC): 17.7 µM | GI50 (NCI-H226 lung): 0.94 µM | TGI (NCI-H226 lung): 7.23 µM | GI50 (RPMI-8226 leukemia): 1.05 µM | TGI (RPMI-8226 leukemia): 2.99 µM | GI50 (SF-539 CNS): 0.838 µM | TGI (SF-539 CNS): 2.24 µM | GI50 (IGROV1 ovarian): 1.77 µM | TGI (IGROV1 ovarian): 18.8 µM | GI50 (UO-31 renal): 1.07 µM | TGI (UO-31 renal): 11.2 µM | GI50 (CCRF-CEM leukemia): 1.02 µM | TGI (CCRF-CEM leukemia): 7.08 µM | GI50 (SK-MEL-2 melanoma): 3.96 µM | TGI (SK-MEL-2 melanoma): 12.7 µM | GI50 (HOP-92 NSCLC): 2.3 µM | TGI (HOP-92 NSCLC): 18.6 µM | GI50 (UACC-257 melanoma): 2.16 µM | TGI (UACC-257 melanoma): 15.6 µM | GI50 (MALME-3M melanoma): 0.888 µM | TGI (MALME-3M melanoma): 3.22 µM | GI50 (HT29 colon): 1.16 µM | TGI (HT29 colon): 5.99 µM | GI50 (KM12 colon): 1.54 µM | TGI (KM12 colon): 21.6 µM | GI50 (SF-295 CNS): 1.49 µM | TGI (SF-295 CNS): 11.6 µM | GI50 (RXF 393 renal): 0.641 µM | TGI (RXF 393 renal): 2.18 µM | GI50 (NCI-H460 lung): 0.695 µM | TGI (NCI-H460 lung): 4.78 µM | GI50 (HCC-2998 colon): 0.723 µM | TGI (HCC-2998 colon): 2.71 µM | GI50 (PC-3 prostate): 1.38 µM | TGI (PC-3 prostate): 14.6 µM | GI50 (DU-145 prostate): 1.91 µM | TGI (DU-145 prostate): 17.9 µM | GI50 (HCT-116 colon): 0.992 µM | TGI (HCT-116 colon): 5.44 µM | GI50 (MCF7 breast): 0.751 µM | TGI (MCF7 breast): 2.79 µM | GI50 (COLO 205 colon): 1.79 µM | TGI (COLO 205 colon): 8.73 µM | GI50 (MDA-MB-468 breast): 0.869 µM | TGI (MDA-MB-468 breast): 3.2 µM | GI50 (MDA-MB-435): 1.83 µM | TGI (MDA-MB-435): 12.9 µM | GI50 (HCT-15 colon): 1.13 µM | TGI (HCT-15 colon): 4.22 µM | GI50 (OVCAR-8 ovarian): 1.79 µM | TGI (OVCAR-8 ovarian): 19.7 µM | GI50 (BT-549 breast): 0.995 µM | TGI (BT-549 breast): 3.74 µM | GI50 (HL-60(TB) leukemia): 0.771 µM | TGI (HL-60(TB) leukemia): 2.27 µM | GI50 (LOX IMVI melanoma): 0.852 µM | TGI (LOX IMVI melanoma): 4.45 µM | GI50 (MDA-MB-231 breast): 3.88 µM | TGI (MDA-MB-231 breast): 14.6 µM | GI50 (M14 melanoma): 1.14 µM | TGI (M14 melanoma): 4.66 µM | GI50 (SK-MEL-28 melanoma): 1.29 µM | TGI (SK-MEL-28 melanoma): 8.71 µM | GI50 (SNB-75 CNS): 1.97 µM | TGI (SNB-75 CNS): 13.9 µM | GI50 (OVCAR-4 ovarian): 1.64 µM | TGI (OVCAR-4 ovarian): 17 µM | GI50 (786-0 renal): 1.96 µM | TGI (786-0 renal): 14.3 µM | GI50 (NCI/ADR-RES ovarian): 2.55 µM | TGI (NCI/ADR-RES ovarian): 19 µM | GI50 (HS 578T breast): 2.12 µM | TGI (HS 578T breast): 18.5 µM | GI50 (T-47D breast): 1.62 µM | TGI (T-47D breast): 31.8 µM | GI50 (SK-OV-3 ovarian): 1.62 µM | TGI (SK-OV-3 ovarian): 38.2 µM | GI50 (SNB-19 CNS): 0.917 µM | TGI (SNB-19 CNS): 6.24 µM | GI50 (TK-10 renal): 4.12 µM | TGI (TK-10 renal): 27.3 µM | GI50 (UACC-62 melanoma): 3.15 µM | TGI (UACC-62 melanoma): 16.6 µM
